This is an account of results in ChEMBL document CHEMBL1201862, “PubChem BioAssay data set” (2004).

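Step 1: Grow cells in 96-well plates. Step 2: Expose to compound for 48 hours at 5 concentrations. Step 3: Interpolate endpoints linearly; if unreached, use highest concentration. Abbreviation: GI50, concentration required for 50% inhibition of growth.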 Active and inactive are the calls of the source. Rule as the data show it: active = GI50 up to about 1.1 µM and inactive = higher.

Among the test systems are Hs-578T; NCI-H460; RPMI-8226; CAKI-1; NCI-H522; NCI/ADR-RES; DU-145; SK-MEL-28; A549; K562; NCI-H23; SNB-19; U-251; MDA-MB-231; OVCAR-4; HOP-62; A498; KM12; CCRF-CEM; TK-10.
Test in all cases: NCI anticancer screen, dose series, 48 h

For the molecule `CN1CCN(Cc2nc3c(s2)CCc2sccc2-3)CC1`, the GI50 in the experiment with Hs-578T is > 100000 nM (inactive); in the experiment with NCI-H460, > 100000 nM (inactive); in the experiment with RPMI-8226, > 100000 nM (inactive); in the experiment with CAKI-1, 37700 nM (inactive); with NCI-H522 it was > 100000 nM (inactive); in the experiment with NCI/ADR-RES, > 100000 nM (inactive). In addition, the GI50 in the experiment with DU-145 was > 100000 nM (inactive); in the experiment on SK-MEL-28, 25400 nM (inactive); in the experiment on A549, > 100000 nM (inactive); in the experiment with K562 it was 89300 nM (inactive); with NCI-H23, > 100000 nM (inactive); in the experiment on SNB-19, 74800 nM (inactive). In addition, the GI50 is > 100000 nM (inactive) in the experiment with U-251; 52200 nM (inactive) with MDA-MB-231; > 100000 nM (inactive) in the experiment on OVCAR-4; > 100000 nM (inactive) in the experiment on HOP-62; 12700 nM (inactive) with A498; > 100000 nM (inactive) with KM12. Moreover, the GI50 in the experiment with CCRF-CEM is > 100000 nM (inactive); in the experiment on TK-10 it was 92700 nM (inactive).
Consider `CC1CNC(c2ccc(-c3nc(-c4ccc(C5=NC(C)CN5)cc4)nc(N(C)C)n3)cc2)=N1` (stereo not given), for which the GI50 in the experiment with Hs-578T was 3210 nM (inactive); in the experiment with NCI-H460 it was 3270 nM (inactive); in the experiment on RPMI-8226, 3780 nM (inactive); in the experiment with CAKI-1 it was 17600 nM (inactive); in the experiment with NCI-H522 it was 1240 nM (inactive); in the experiment on NCI/ADR-RES it was 22000 nM (inactive). Besides, the GI50 with DU-145 was 1780 nM (inactive); in the experiment with SK-MEL-28, 2690 nM (inactive); in the experiment with A549, 3020 nM (inactive); in the experiment on K562, 1410 nM (inactive); in the experiment on NCI-H23, 2390 nM (inactive); in the experiment on SNB-19, 1750 nM (inactive). Besides, the GI50 is 991 nM (active) in the experiment on U-251; 1310 nM (inactive) in the experiment with MDA-MB-231; 1550 nM (inactive) with OVCAR-4; 1470 nM (inactive) in the experiment on HOP-62; 2050 nM (inactive) in the experiment with A498; 2230 nM (inactive) in the experiment on KM12. For the same molecule, the GI50 with CCRF-CEM is 685 nM (active); with TK-10 it was 3780 nM (inactive).
As for `C#Cc1nc(N)c2ncn(C3OC(COS(N)(=O)=O)C(O)C3O)c2n1` (stereo not given), the GI50 with Hs-578T is 37.9 nM (active); with NCI-H460, < 19.3 nM (active); in the experiment with RPMI-8226 it was 17.2 nM (active); with CAKI-1 it was 55.9 nM (active); in the experiment with NCI-H522, < 10 nM (active); in the experiment with NCI/ADR-RES, < 18.4 nM (active). For the same molecule, the GI50 is 51.8 nM (active) in the experiment on DU-145; 37.4 nM (active) in the experiment on SK-MEL-28; 88.1 nM (active) with A549; 13.1 nM (active) with K562; < 16.4 nM (active) with NCI-H23; 20.8 nM (active) in the experiment with SNB-19. Besides, the GI50 was 21.3 nM (active) in the experiment on U-251; < 18.5 nM (active) in the experiment on MDA-MB-231; < 19.3 nM (active) with OVCAR-4; 146 nM (active) in the experiment on HOP-62; < 14.8 nM (active) in the experiment with A498; < 19.3 nM (active) in the experiment on KM12. Moreover, the figures for the GI50 in the experiment with CCRF-CEM and in the experiment on TK-10 were < 18.9 nM (active) and < 22 nM (active), respectively.
For `N#Cc1c2ccc([N+](=O)[O-])cc2c(=O)n2c1[nH]c1ccc(C(F)(F)F)cc12`, the GI50 was 24400 nM (inactive) with Hs-578T; 21100 nM (inactive) in the experiment with NCI-H460; 4480 nM (inactive) in the experiment with RPMI-8226; 60800 nM (inactive) with CAKI-1; 7280 nM (inactive) in the experiment on NCI-H522; 23200 nM (inactive) with NCI/ADR-RES. Also, the GI50 in the experiment on DU-145 is 44400 nM (inactive); in the experiment with SK-MEL-28, 24200 nM (inactive); in the experiment with A549 it was > 55800 nM (inactive); in the experiment with K562 it was 12500 nM (inactive); with NCI-H23, 20100 nM (inactive); in the experiment with SNB-19, 10800 nM (inactive). Also, the GI50 with U-251 is 26400 nM (inactive); with MDA-MB-231, 22200 nM (inactive); in the experiment on OVCAR-4, 24800 nM (inactive); in the experiment on HOP-62, 26900 nM (inactive); with A498 it was 7910 nM (inactive); with KM12, 24800 nM (inactive). For the same molecule, the results for the GI50 in the experiment on CCRF-CEM and in the experiment with TK-10 were 1350 nM (inactive) and 99500 nM (inactive), respectively.
For `C[C@H]1C/C=C/[C@H]2[C@@H]3O[C@]3(C)[C@@H](C)[C@H]3[C@H](Cc4ccccc4)NC(=O)[C@]32OC(=O)O/C=C/[C@@](C)(O)C1=O` [CYTOCHALASIN E], the GI50 in the experiment with Hs-578T is 17.1 nM (active); with NCI-H460, 16.1 nM (active); with RPMI-8226, 556 nM (active); in the experiment on CAKI-1, 13.2 nM (active); with NCI-H522, 43.1 nM (active); in the experiment with NCI/ADR-RES, 5690 nM (inactive). Further, the GI50 in the experiment with DU-145 is < 10 nM (active); with SK-MEL-28 it was 200 nM (active); with A549, 25.3 nM (active); in the experiment with K562, 1720 nM (inactive); in the experiment with NCI-H23 it was 197 nM (active); with SNB-19 it was 60.4 nM (active). For the same molecule, the GI50 is 18.8 nM (active) in the experiment with U-251; < 10 nM (active) in the experiment on MDA-MB-231; 26.2 nM (active) in the experiment with OVCAR-4; 20.6 nM (active) in the experiment with HOP-62; 18.1 nM (active) in the experiment with A498; 17500 nM (inactive) in the experiment on KM12. Besides, the GI50 in the experiment with CCRF-CEM is 21 nM (active); with TK-10, < 10 nM (active).
